Tests used:
Format in all cases: biochemical
Jarid1B = Jarid1B (Homo sapiens (Human), UniProt Q9UGL1); experiment: Jarid1B in vitro enzyme inhibition assay (TR-FRET)
Protocol: This assay determines the ability of a test compound to inhibit Jarid1A, Jarid1B, JMJD2C, and JMJD2A demethylase activity.
The ability of test compounds to inhibit the activity of Jarid1B was determined in 384-well plate format under the following reaction conditions: 0.8 nM Jarid1B, 300 nM H3K4me3-biotin labeled peptide (Anaspec cat #64357), 2 μM alpha-ketoglutaric acid in assay buffer of 50 mM HEPES, pH7.3, 0.005% Brij35, 0.5 mM TCEP, 0.2 mg/ml BSA, 50 μM sodium L-ascorbate, and 2 μM ammonium iron(II) sulfate. Reaction product was determined quantitatively by TR-FRET after the addition of detection reagent Phycolink Streptavidin-allophycocyanin (Prozyme) and Europium-anti-mono- or di-methylated histone H3 lysine 4 (H3K4me1-2) antibody (PerkinElmer) in the presence of 5 mM EDTA in LANCE detection buffer (PerkinElmer) at a final concentration of 25 nM and 1 nM, respectively.
The assay reaction was initiated by the following: 2 μl of the mixture of 900 nM H3K4me3-biotin labeled peptide and 6 μM alpha-ketoglutaric acid with 2 μl of 11-point serial diluted inhibitor in 3% DMSO was added to each well of the plate, followed by the addition of 2 μl of 2.4 nM Jarid1B to initiate the reaction. The reaction mixture was incubated at room temperature for 30 minutes, and terminated by the addition of 6 μl of 5 mM EDTA in LANCE detection buffer containing 50 nM Phycolink Streptavidin-allophycocyanin and 2 nM Europium-anti-H3K4me1-2 antibody. Plates were read by EnVisionMultilabel Reader in TR-FRET mode (excitation at 320 nm, emission at 615 nm and 665 nm) after 1 hour incubation at room temperature. A ratio was calculated (665/615) for each well and fitted to determine inhibition constant (IC50).

JMJD2C = JMJD2C (Homo sapiens (Human), UniProt Q9H3R0); experiment: JMJD2C in vitro enzyme inhibition assay (TR-FRET)
Protocol: Baculovirus expressed JMJD2C (GenBank Accession #BC143571, AA 2-372) was purchased from BPS Bioscience (Cat#50105).
The ability of test compounds to inhibit the activity of JMJD2C was determined in 384-well plate format under the following reaction conditions: 0.3 nM JMJD2C, 300 nM H3K9me3-biotin labeled peptide (Anaspec cat #64360), 2 μM alpha-ketoglutaric acid in assay buffer of 50 mM HEPES, pH7.3, 0.005% Brij35, 0.5 mM TCEP, 0.2 mg/ml BSA, 50 μM sodium L-ascorbate, and 2 μM ammonium iron(II) sulfate. Reaction product was determined quantitatively by TR-FRET after the addition of detection reagent Phycolink Streptavidin-allophycocyanin (Prozyme) and Europium-anti-di-methylated histone H3 lysine 9 (H3K9me2) antibody (PerkinElmer) in the presence of 5 mM EDTA in LANCE detection buffer (PerkinElmer) at a final concentration of 50 nM and 1 nM, respectively.
The assay reaction was initiated by the following: 2 μl of the mixture of 900 nM H3K9me3-biotin labeled peptide and 6 μM alpha-ketoglutaric acid with 2 μl of 11-point serial diluted inhibitor in 3% DMSO were added to each well of the plate, followed by the addition of 2 μl of 0.9 nM JMJD2C to initiate the reaction. The reaction mixture was incubated at room temperature for 30 minutes, and terminated by the addition of 6 μl of 5 mM EDTA in LANCE detection buffer containing 100 nM Phycolink Streptavidin-allophycocyanin and 2 nM Europium-anti-H3K9me2 antibody. Plates were read by EnVisionMultilabel Reader in TR-FRET mode (excitation at 320 nm, emission at 615 nm and 665 nm) after 1 hour incubation at room temperature. A ratio was calculated (665/615) for each well and fitted to determine inhibition constant (IC50).

Jarid1A = Jarid1A (Homo sapiens (Human), UniProt P29375); experiment: Jarid1A in vitro enzyme inhibition assay (TR-FRET)
Description: The enzymatic assay of Jarid1A activity is based upon Time Resolved-Fluorescence Resonance Energy Transfer (TR-FRET) detection.

FBXL10 = FBXL10 (Homo sapiens (Human), UniProt Q8NHM5); experiment: FBXL10 in vitro enzyme inhibition assay (AlphaScreen)
Protocol: Reaction product was determined quantitatively by AlphaScreen detection after the addition of detection reagents anti-H3K36me1 antibody, AlphaScreen® Streptavidin-coated Donor beads, and AlphaScreen® Protein A Acceptor beads in 50 mM HEPES, pH7.3, 10 mM NaCl, 0.005% Brij35, 5 mM EDTA, 2 mg/ml BSA to final 10 μg/ml beads.
Plates were incubated at room temperature for 40 minutes, followed by addition of 3 μl of 50 μg/ml AlphaScreen® Streptavidin-coated Donor beads and AlphaScreen® Protein A Acceptor beads in 50 mM HEPES, pH7.3, 10 mM NaCl, 0.005% Brij35, 5 mM EDTA, 2 mg/ml BSA. Plates were read by EnVisionMultilabel Reader in AlphaScreen mode after a minimum of 2 hour or up to overnight incubation at room temperature. The AlphaScreen signal for each well was used to determine inhibition constant (IC50).

JMJD2C, sequence (Q9H3R0 2-372): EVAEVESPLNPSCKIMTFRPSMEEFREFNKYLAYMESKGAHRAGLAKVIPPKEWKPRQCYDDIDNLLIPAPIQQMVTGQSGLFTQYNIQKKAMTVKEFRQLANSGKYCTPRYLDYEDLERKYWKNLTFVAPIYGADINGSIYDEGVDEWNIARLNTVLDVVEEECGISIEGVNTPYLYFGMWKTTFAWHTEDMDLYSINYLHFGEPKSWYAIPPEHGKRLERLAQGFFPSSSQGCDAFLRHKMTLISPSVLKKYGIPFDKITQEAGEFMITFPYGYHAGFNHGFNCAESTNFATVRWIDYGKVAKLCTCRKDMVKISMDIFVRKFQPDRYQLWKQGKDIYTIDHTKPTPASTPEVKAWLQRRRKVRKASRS
Jarid1B, sequence (Q9UGL1 2-751): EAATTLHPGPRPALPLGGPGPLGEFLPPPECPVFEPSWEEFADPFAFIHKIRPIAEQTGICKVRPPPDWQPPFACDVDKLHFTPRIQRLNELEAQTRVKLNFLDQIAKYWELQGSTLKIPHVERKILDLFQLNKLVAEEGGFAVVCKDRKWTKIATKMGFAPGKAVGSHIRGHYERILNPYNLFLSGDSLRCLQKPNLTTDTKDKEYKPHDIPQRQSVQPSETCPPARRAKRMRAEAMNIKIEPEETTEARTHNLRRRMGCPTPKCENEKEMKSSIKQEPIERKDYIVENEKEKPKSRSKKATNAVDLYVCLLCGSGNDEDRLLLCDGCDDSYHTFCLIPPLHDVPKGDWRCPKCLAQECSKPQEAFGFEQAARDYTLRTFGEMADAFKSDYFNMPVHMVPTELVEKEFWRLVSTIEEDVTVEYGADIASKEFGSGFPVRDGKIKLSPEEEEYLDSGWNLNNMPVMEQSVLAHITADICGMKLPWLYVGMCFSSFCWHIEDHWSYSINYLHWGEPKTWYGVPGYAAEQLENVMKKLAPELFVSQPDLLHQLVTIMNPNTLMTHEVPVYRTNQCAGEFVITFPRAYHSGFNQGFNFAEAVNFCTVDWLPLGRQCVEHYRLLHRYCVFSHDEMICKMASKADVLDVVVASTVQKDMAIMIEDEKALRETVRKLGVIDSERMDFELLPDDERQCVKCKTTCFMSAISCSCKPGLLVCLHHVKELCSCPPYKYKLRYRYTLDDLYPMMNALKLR
Jarid1A, sequence (P29375 1-1090): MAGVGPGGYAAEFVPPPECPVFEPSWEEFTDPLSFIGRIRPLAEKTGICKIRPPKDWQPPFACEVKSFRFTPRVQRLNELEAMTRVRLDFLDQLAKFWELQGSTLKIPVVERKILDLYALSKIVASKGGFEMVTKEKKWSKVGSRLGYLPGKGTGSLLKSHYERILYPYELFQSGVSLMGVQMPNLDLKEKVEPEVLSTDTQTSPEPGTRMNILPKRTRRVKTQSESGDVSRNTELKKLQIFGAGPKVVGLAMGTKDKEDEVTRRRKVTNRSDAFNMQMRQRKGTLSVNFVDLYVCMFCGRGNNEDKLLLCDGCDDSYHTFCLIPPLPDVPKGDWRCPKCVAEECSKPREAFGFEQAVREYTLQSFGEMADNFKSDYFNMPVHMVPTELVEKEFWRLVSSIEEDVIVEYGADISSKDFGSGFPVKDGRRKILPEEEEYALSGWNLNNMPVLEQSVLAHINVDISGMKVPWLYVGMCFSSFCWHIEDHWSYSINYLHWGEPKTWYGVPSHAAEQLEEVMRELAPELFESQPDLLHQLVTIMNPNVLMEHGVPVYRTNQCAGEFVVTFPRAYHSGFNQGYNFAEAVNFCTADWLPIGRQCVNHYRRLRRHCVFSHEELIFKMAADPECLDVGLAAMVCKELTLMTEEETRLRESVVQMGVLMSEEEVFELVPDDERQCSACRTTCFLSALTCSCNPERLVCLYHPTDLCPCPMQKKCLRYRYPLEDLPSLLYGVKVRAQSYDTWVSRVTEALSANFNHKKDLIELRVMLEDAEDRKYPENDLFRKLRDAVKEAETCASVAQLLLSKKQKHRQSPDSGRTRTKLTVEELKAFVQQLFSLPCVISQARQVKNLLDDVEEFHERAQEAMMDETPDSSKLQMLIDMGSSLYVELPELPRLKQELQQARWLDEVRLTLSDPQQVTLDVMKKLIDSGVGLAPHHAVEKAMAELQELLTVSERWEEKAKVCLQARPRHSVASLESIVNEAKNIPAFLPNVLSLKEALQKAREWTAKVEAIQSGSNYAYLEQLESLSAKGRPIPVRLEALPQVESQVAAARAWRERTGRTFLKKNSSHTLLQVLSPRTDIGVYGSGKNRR
FBXL10, sequence (Q8NHM5 1-650): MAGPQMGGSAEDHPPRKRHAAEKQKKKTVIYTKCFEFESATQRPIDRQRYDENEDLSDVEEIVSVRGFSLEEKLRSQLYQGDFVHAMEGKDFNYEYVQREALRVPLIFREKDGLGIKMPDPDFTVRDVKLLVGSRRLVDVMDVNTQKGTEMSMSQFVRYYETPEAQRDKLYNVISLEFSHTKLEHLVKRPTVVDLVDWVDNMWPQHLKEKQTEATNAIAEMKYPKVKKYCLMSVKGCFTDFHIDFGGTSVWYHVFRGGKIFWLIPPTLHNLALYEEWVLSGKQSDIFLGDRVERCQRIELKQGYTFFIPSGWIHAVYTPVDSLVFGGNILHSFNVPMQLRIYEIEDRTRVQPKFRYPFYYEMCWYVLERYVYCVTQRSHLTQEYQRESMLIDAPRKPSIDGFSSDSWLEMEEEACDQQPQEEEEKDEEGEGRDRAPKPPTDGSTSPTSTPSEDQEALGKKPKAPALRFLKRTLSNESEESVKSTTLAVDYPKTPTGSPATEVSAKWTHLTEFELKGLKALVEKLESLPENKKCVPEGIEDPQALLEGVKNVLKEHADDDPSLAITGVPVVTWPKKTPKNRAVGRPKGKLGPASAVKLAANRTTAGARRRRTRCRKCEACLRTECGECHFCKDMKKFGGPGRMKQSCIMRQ

IC50 (Jarid1B) [nM]	IC50 (JMJD2C) [nM]	IC50 (Jarid1A) [nM]	IC50 (FBXL10) [nM]	Structure (SMILES)
< 100	100 to 1000	100 to 1000	100 to 1000	Cc1cc(O)n(-c2cc(C(=O)O)ccn2)n1 [Example 1, 2-(5-hydroxy-3-methyl-1H-pyrazol-1-yl)isonicotinic acid]
< 100	100 to 1000	100 to 1000	100 to 1000	Cc1nn(-c2cc(C(=O)O)ccn2)c(O)c1C [Example 3, 2-(5-hydroxy-3,4-dimethyl-1H-pyrazol-1-yl)isonicotinic acid]
1000 to 10000	1000 to 10000	1000 to 10000	100 to 1000	Cc1nn(-c2cc(C(=O)O)ccn2)c(O)c1-c1ccccc1 [Example 4, 2-(5-hydroxy-3-methyl-4-phenyl-1H-pyrazol-1-yl)isonicotinic acid]
1000 to 10000	1000 to 10000	1000 to 10000	< 100	O=C(O)c1ccnc(-n2nc(-c3ccccc3F)cc2O)c1 [Example 5, 2-(3-(2-fluorophenyl)-5-hydroxy-1H-pyrazol-1-yl)isonicotinic acid]
100 to 1000	100 to 1000	100 to 1000	100 to 1000	CCCc1cc(O)n(-c2cc(C(=O)O)ccn2)n1 [Example 6, 2-(5-hydroxy-3-propyl-1H-pyrazol-1-yl)isonicotinic acid]
1000 to 10000	> 10000	1000 to 10000	< 100	O=C(O)c1ccnc(-n2nc(-c3ccccc3Cl)cc2O)c1 [Example 7, 2-(3-(2-chlorophenyl)-5-hydroxy-1H-pyrazol-1-yl)isonicotinic acid]
100 to 1000	1000 to 10000	100 to 1000	< 100	O=C(O)c1ccnc(-n2nc(Cc3ccccc3)cc2O)c1 [Example 8, 2-(3-benzyl-5-hydroxy-1H-pyrazol-1-yl)isonicotinic acid]
100 to 1000	1000 to 10000	100 to 1000	< 100	COCc1cc(O)n(-c2cc(C(=O)O)ccn2)n1 [Example 9, 2-(5-hydroxy-3-(methoxymethyl)-1H-pyrazol-1-yl)isonicotinic acid]
100 to 1000	> 10000	1000 to 10000	< 100	O=C(O)c1ccnc(-n2nc(COc3ccccc3)cc2O)c1 [Example 10, 2-(5-hydroxy-3-(phenoxymethyl)-1H-pyrazol-1-yl)isonicotinic acid]
< 100	100 to 1000	< 100	100 to 1000	O=C(O)c1ccnc(-n2nccc2O)c1 [Example 11, 2-(5-hydroxy-1H-pyrazol-1-yl)isonicotinic acid]
100 to 1000	100 to 1000	100 to 1000	> 10000	O=C(O)c1ccnc(-n2nccc2-c2ccc(F)cc2)c1 [Example 27, 2-(5-(4-fluorophenyl)-1H-pyrazol-1-yl)isonicotinic acid]
> 10000	> 10000	> 10000	1000 to 10000	O=C(O)c1ccnc(-n2nccc2Cc2ccccc2)c1 [Example 32, 2-(5-benzyl-1H-pyrazol-1-yl)isonicotinic acid]
1000 to 10000	1000 to 10000	1000 to 10000	1000 to 10000	O=C(O)c1ccnc(-n2ccc(Cc3ccccc3)n2)c1 [Example 33, 2-(3-benzyl-1H-pyrazol-1-yl)isonicotinic acid]
< 100	< 100	< 100	> 10000	O=C(O)c1ccnc(-n2nccc2OCc2ccc(F)cc2)c1 [Example 40, 2-{5-[(4-fluorobenzyl)oxy]-1H-pyrazol-1-yl}pyridine-4-carboxylic acid]
100 to 1000	1000 to 10000	100 to 1000	100 to 1000	O=C(O)c1ccnc(-n2nccc2OCc2ccc3cn[nH]c3c2)c1 [Example 49, 2-[5-(1H-indazol-6-ylmethoxy)-1H-pyrazol-1-yl]pyridine-4-carboxylic acid]
< 100	< 100	< 100	1000 to 10000	Cc1ccc(COc2ccnn2-c2cc(C(=O)O)ccn2)cc1 [Example 55, 2-{5-[(4-methylbenzyl)oxy]-1H-pyrazol-1-yl}pyridine-4-carboxylic acid]
< 100	100 to 1000	< 100	1000 to 10000	CCc1ccc(COc2ccnn2-c2cc(C(=O)O)ccn2)cc1 [Example 56, 2-{5-[(4-ethylbenzyl)oxy]-1H-pyrazol-1-yl}pyridine-4-carboxylic acid]

IC50 (Jarid1B) [nM]	IC50 (JMJD2C) [nM]	IC50 (Jarid1A) [nM]	IC50 (FBXL10) [nM]	Structure (SMILES)
< 100	< 100	< 100	1000 to 10000	Cc1ccc(COc2ccnn2-c2cc(C(=O)O)ccn2)cc1Cl [Example 92, 2-[5-[(3-chloro-4-methylphenyl)methoxy]pyrazol-1-yl]pyridine-4-carboxylic acid]
< 100	< 100	< 100	1000 to 10000	N#Cc1ccc(COc2ccnn2-c2cc(C(=O)O)ccn2)cc1 [Example 99, 2-[5-[(4-cyanophenyl)methoxy]pyrazol-1-yl]pyridine-4-carboxylic acid]
< 100	100 to 1000	< 100	100 to 1000	O=C(O)c1ccnc(-n2nccc2OCc2ccc(Cl)cc2OCc2ccccc2)c1 [Example 105, 2-[5-[(4-chloro-2-phenylmethoxyphenyl)methoxy]pyrazol-1-yl]pyridine-4-carboxylic acid]
< 100	100 to 1000	< 100	1000 to 10000	O=C(O)c1ccnc(-n2nccc2OCc2ccc(Cl)cc2OCC2CC2)c1 [Example 106, 2-[5-[[4-chloro-2-(cyclopropylmethoxy)phenyl]methoxy]pyrazol-1-yl]pyridine-4-carboxylic acid]
< 100	100 to 1000	< 100	1000 to 10000	O=C(O)c1ccnc(-n2nccc2OCc2ccc(Cl)cc2OCC(F)(F)F)c1 [Example 108, 2-[5-[[4-chloro-2-(2,2,2-trifluoroethoxy)phenyl]methoxy]pyrazol-1-yl]pyridine-4-carboxylic acid]
< 100	< 100	< 100	> 10000	CN(CCc1cnn(-c2cc(C(=O)O)ccn2)c1)Cc1ccc(F)cc1 [Example 156, 2-[4-[2-[(4-fluorophenyl)methyl-methylamino]ethyl]pyrazol-1-yl]pyridine-4-carboxylic acid]
–	1000 to 10000	–	< 100	O=C(O)c1ccnc(-n2nc(Cc3c(F)cccc3F)cc2O)c1 [Example 161, 2-[3-[(2,6-difluorophenyl)methyl]-5-hydroxypyrazol-1-yl]pyridine-4-carboxylic acid]
–	1000 to 10000	–	< 100	CC(c1ccccc1)c1cc(O)n(-c2cc(-c3nnn[nH]3)ccn2)n1 (stereo not shown) [Example 166, 5-(1-phenylethyl)-2-[4-(1H-tetrazol-5-yl)pyridin-2-yl]pyrazol-3-ol]
–	1000 to 10000	–	< 100	Oc1cc(Cc2ccccc2Cl)nn1-c1cc(-c2nnn[nH]2)ccn1 [Example 167, 5-[(2-chlorophenyl)methyl]-2-[4-(1H-tetrazol-5-yl)pyridin-2-yl]pyrazol-3-ol]
–	1000 to 10000	–	< 100	Oc1cc(Cc2cccc(Cl)c2)nn1-c1cc(-c2nnn[nH]2)ccn1 [Example 168, 5-[(3-chlorophenyl)methyl]-2-[4-(1H-tetrazol-5-yl)pyridin-2-yl]pyrazol-3-ol]
–	1000 to 10000	–	< 100	CC(C)(c1ccc(Cl)cc1)c1cc(O)n(-c2cc(C(=O)O)ccn2)n1 [Example 170, 2-[3-[2-(4-chlorophenyl)propan-2-yl]-5-hydroxypyrazol-1-yl]pyridine-4-carboxylic acid]
–	1000 to 10000	–	< 100	O=C(O)c1ccnc(-n2nc(C3(c4ccc(Cl)cc4)CC3)cc2O)c1 [Example 171, 2-[3-[1-(4-chlorophenyl)cyclopropyl]-5-hydroxypyrazol-1-yl]pyridine-4-carboxylic acid]
–	1000 to 10000	–	100 to 1000	O=C(O)c1ccnc(-n2nc(Cc3cc(Cl)cc(Cl)c3)cc2O)c1 [Example 172, 2-[3-[(3,5-dichlorophenyl)methyl]-5-hydroxypyrazol-1-yl]pyridine-4-carboxylic acid]
–	1000 to 10000	–	< 100	Cc1cc(F)ccc1Cc1cc(O)n(-c2cc(C(=O)O)ccn2)n1 [Example 173, 2-[3-[(4-fluoro-2-methylphenyl)methyl]-5-hydroxypyrazol-1-yl]pyridine-4-carboxylic acid]
–	1000 to 10000	–	< 100	Cc1ccc(Cc2cc(O)n(-c3cc(C(=O)O)ccn3)n2)c(F)c1 [Example 174, 2-[3-[(2-fluoro-4-methylphenyl)methyl]-5-hydroxypyrazol-1-yl]pyridine-4-carboxylic acid]
–	1000 to 10000	–	< 100	O=C(O)c1ccnc(-n2nc(Cc3ccc(F)cc3F)cc2O)c1 [Example 175, 2-[3-[(2,4-difluorophenyl)methyl]-5-hydroxypyrazol-1-yl]pyridine-4-carboxylic acid]

Source: US9604961B2, “Histone demethylase inhibitors” (Celgene Quanticel Research, Inc., priority 2012, dated 2017)
